Columns and labels:
GCT cultured cells [1] = assay: Cell proliferation of GCT cultured cells, Cell Counting Kit-8, absorbance at 450 nm; type: cell-based, human; settings: GCT cultured cells case 1, case 2
Procedure: (§1) GCT cultured cells (case 1, patient with osteoclastoma in a distal part of the right femur; case 2, patient with osteoclastoma in a distal part of the right femur) were cultured on a 96-well culture plate, zaltoprofen was added to the cells at various concentrations (5, 10, 50, 100, and 200 μM), color development was attained with Cell Counting Kit-8 (CCK-8) (Dojindo) 24 hours thereafter, and absorbance was measured at 450 nm 3 hours thereafter (FIG. 1).
In the same manner as that of Example 1, the GOT cultured cells (case 1, case 2) were cultured, a non-steroidal anti-inflammatory agent (acetaminophen, indomethacin, or diclofenac) or troglitazone was added at various concentrations, and absorbance was measured at 450 nm (FIGS. 12 and 13).
(§2) In the same manner as that of Example 1, the GCT cultured cells (case 1, case 2), the cells derived from giant cell tumor of tendon sheath (GCT of tendon sheath), or the cells derived from pigmented villonodular synovitis (diffuse-type GCT) were cultured, and then pioglitazone, a thiazolidine derivative, was added at various concentrations, and absorbance was measured at 450 nm (FIG. 32).

osteoclastoma (GCT) [2] = assay: Fat cell differentiation in operational excision sample of GCT patient administered with zaltoprofen; type: in vivo, human; settings: 3 tablets per day (80 mg) for about 28 days
Procedure: (§3) An operational excision sample of a person who had been administered with 3 tablets per day of the zaltoprofen tablets, Soleton Tablet 80 (generic name: zaltoprofen, 80 mg, Nippon Chemiphar) for about 28 days for pain due to the tumor, and then subjected to the operation, and an operational excision sample of a patient with osteoclastoma not administered with zaltoprofen as a control were subjected to staining of PPARγ, and expression of PPARγ was analyzed. Observation was performed with a fluorescence microscope (BZ-9000) of Keyence (FIG. 11).

[3] = system: cells derived from giant cell tumor of tendon sheath; assay: Fat cell differentiation of cells derived from giant cell tumor of tendon sheath, lipid stain; type: cell-based, human; settings: 400 μM, compared with control
Procedure: (§4) It has been reported that PPARγ is a transcription factor indispensable for fat cell differentiation. Therefore, the GCT cultured cells of the aforementioned case 1 were cultured on chamber cover slide glass, and when they reached confluent, zaltoprofen was added to the cells at various concentrations (10, 50, and 100 μM). From 24 hours thereafter, the cells were cultured in a fat cell differentiation-inducing medium (STREMPRO Adipogenesis Differentiation Kit, Invitrogen) for 7 to 14 days, and differentiation into fat cells was analyzed with HCS LipidTOX Green Neutral Lipid Stain (Invitrogen) (FIGS. 8 and 9).
(§5) As described in Example 3, it has been reported that PPARγ is a transcription factor indispensable for fat cell differentiation. Therefore, zaltoprofen was added at a concentration of 400 μM to the cells derived from giant cell tumor of tendon sheath or the cells derived from pigmented villonodular synovitis, and differentiation into fat cells was analyzed (FIGS. 30 and 31). As a result, it was successfully observed that the positive images obtained with HCS LipidTOX Green Neutral Lipid Stain increased in the zaltoprofen-added cells compared with the control.

PPARγ [4] = assay: PPARγ immunostaining of GCT cultured cells; type: cell-based, human; settings: case 1; 10, 50, 100, and 200 μM; 24 hours
Procedure: The GCT cultured cells of the aforementioned case 1 were cultured on chamber cover slide glass, and 24 hours thereafter, zaltoprofen was added at various concentrations (10, 50, 100, and 200 μM). After 24 hours, the cells were fixed with 4% paraformaldehyde, and staining of PPARγ was performed. Observation was performed with a fluorescence microscope (BZ-9000) of Keyence, and positive images for each concentration were quantitatively observed (FIGS. 6 and 7).

PPARγ [5] = assay: PPARγ immunostaining of chondrosarcoma-derived cell line; type: cell-based; settings: 200 μM zaltoprofen
caspase 3 [6] = assay: Caspase 3 staining of chondrosarcoma-derived cell line; type: cell-based; settings: 200 μM zaltoprofen, compared with control
Procedure: (§6) Further, the aforementioned GCT cultured cells of the case 1 were cultured on chamber cover slide glass, and zaltoprofen was added at different concentrations (100, and 200 μM) 24 hours afterward. Then, 8 hours and 24 hours afterward, the cells were fixed with 4% paraformaldehyde, staining with caspase 3 and Tunel assay were performed, and presence or absence of apoptosis was analyzed. Observation was performed with a fluorescence microscope (BZ-9000) of Keyence, and positive images for each concentration were quantitatively observed (FIGS. 2 to 5).
Further, in the same manner as that of Example 1, the chondrosarcoma-derived cell line was subjected to caspase 3 staining, and presence or absence of apoptosis was analyzed (FIGS. 46 and 47). As a result, it was successfully observed that the caspase 3-positive ratio increased in the cells added with zaltoprofen at a concentration of 200 μM, troglitazone at a concentration of 100 μM, or pioglitazone at a concentration of 200 μM, compared with the control.

GCT cultured cells [7] = assay: Tunel assay of GCT cultured cells; type: cell-based, human; settings: case 1; 100 and 200 μM; 8 hours and 24 hours
Procedure: as §6

[8] = system: cultured cells of pigmented villonodular synovitis; assay: Tunel assay of cultured cells of pigmented villonodular synovitis; type: cell-based, human; settings: 400 μM, compared with control
Procedure: as §6, with “5). […] Further, in the same manner as that of Example 1, the cultured cells of giant cell tumor of tendon sheath and the cultured cells of pigmented villonodular synovitis were subjected to staining with caspase 3 and Tunel assay, and presence or absence of apoptosis was analyzed (FIGS. 18 to 25). As a result, it was observed that the Tunel-positive ratio and caspase 3-positive ratio increased in the cells added with zaltoprofen at a concentration of 400 μM or troglitazone at a concentration of 2000 μM compared with those observed for the control.” for “5).”

PPARγ [9] = assay: PPARγ immunostaining of cells derived from giant cell tumor of tendon sheath; type: cell-based, human; settings: 400 μM
caspase 3 [10] = assay: Caspase 3 staining of operational excision sample of GCT patient administered with zaltoprofen; type: in vivo, human; settings: 3 tablets per day (80 mg) for about 28 days
Procedure: (§7) An operational excision sample of a person who had been administered with 3 tablets per day of the zaltoprofen tablets, Soleton Tablet 80 (generic name: zaltoprofen, 80 mg, Nippon Chemiphar) for about 28 days for pain due to the tumor, and then subjected to the operation, and an operational excision sample of a patient with osteoclastoma not administered with zaltoprofen as a control were subjected to caspase 3 staining and Tunel assay, and analyzed for the presence or absence of apoptosis. Observation was performed with a fluorescence microscope (BZ-9000) produced by Keyence (FIG. 10). As a result, almost no Tunel-positive cells and caspase 3-positive cells were observed among the cells derived from the GCT patient not administered with zaltoprofen, whilst Tunel-positive cells and caspase 3-positive cells were observed among the cells derived from the patient administered with zaltoprofen.

caspase 3 [11] = assay: Caspase 3 staining of cultured cells of giant cell tumor of tendon sheath; type: cell-based, human; settings: 400 μM, compared with control
Procedure: as §6, with “5). […] Further, in the same manner as that of Example 1, the cultured cells of giant cell tumor of tendon sheath and the cultured cells of pigmented villonodular synovitis were subjected to staining with caspase 3 and Tunel assay, and presence or absence of apoptosis was analyzed (FIGS. 18 to 25). As a result, it was observed that the Tunel-positive ratio and caspase 3-positive ratio increased in the cells added with zaltoprofen at a concentration of 400 μM or troglitazone at a concentration of 2000 μM compared with those observed for the control.” for “5).”

[12] = system: chondrosarcoma-derived cell line (H-EMC-SS); assay: Cell proliferation of chondrosarcoma-derived cell line, CCK-8; type: cell-based; settings: various concentrations
osteoclastoma (GCT) [13] = assay: Tunel assay of operational excision sample of GCT patient administered with zaltoprofen; type: in vivo, human; settings: 3 tablets per day (80 mg) for about 28 days
Procedure: as §7

[14] = system: cells derived from pigmented villonodular synovitis; assay: Fat cell differentiation of cells derived from pigmented villonodular synovitis, lipid stain; type: cell-based, human; settings: 400 μM, compared with control
Procedure: as §4, §5

PPARγ [15] = assay: PPARγ immunostaining of cells derived from pigmented villonodular synovitis; type: cell-based, human; settings: 400 μM
GCT cultured cells [16] = assay: Fat cell differentiation of GCT cultured cells, HCS LipidTOX Green Neutral Lipid Stain; type: cell-based, human; settings: case 1; 10, 50, and 100 μM; fat cell differentiation-inducing medium 7 to 14 days
Procedure: as §4

caspase 3 [17] = assay: Caspase 3 staining of GCT cultured cells; type: cell-based, human; settings: case 1; 100 and 200 μM; 8 hours and 24 hours
Procedure: as §6

caspase 3 [18] = assay: Caspase 3 staining of cultured cells of pigmented villonodular synovitis; type: cell-based, human; settings: 400 μM, compared with control
Procedure: as §6, with “5). […] Further, in the same manner as that of Example 1, the cultured cells of giant cell tumor of tendon sheath and the cultured cells of pigmented villonodular synovitis were subjected to staining with caspase 3 and Tunel assay, and presence or absence of apoptosis was analyzed (FIGS. 18 to 25). As a result, it was observed that the Tunel-positive ratio and caspase 3-positive ratio increased in the cells added with zaltoprofen at a concentration of 400 μM or troglitazone at a concentration of 2000 μM compared with those observed for the control.” for “5).”

[19] = system: pigmented villonodular synovitis; assay: MRI and symptom evaluation of patients with recurrence of pigmented villonodular synovitis in the right knee administered with zaltoprofen; type: in vivo, human; settings: person, 3 tablets per day
Procedure: (§8) Soleton Tablet 80 (generic name: zaltoprofen, 80 mg, Nippon Chemiphar) was administered to a patient with osteoclastoma, a patient with giant cell tumor of tendon sheath, or a patient with pigmented villonodular synovitis at a dose of 3 tablets per day (administered in morning, at noon, and in evening), and the tumor size was evaluated by MRI every several months.

[20] = system: cultured cells of giant cell tumor of tendon sheath; assay: Tunel assay of cultured cells of giant cell tumor of tendon sheath; type: cell-based, human; settings: 400 μM, compared with control
Procedure: as §6, with “5). […] Further, in the same manner as that of Example 1, the cultured cells of giant cell tumor of tendon sheath and the cultured cells of pigmented villonodular synovitis were subjected to staining with caspase 3 and Tunel assay, and presence or absence of apoptosis was analyzed (FIGS. 18 to 25). As a result, it was observed that the Tunel-positive ratio and caspase 3-positive ratio increased in the cells added with zaltoprofen at a concentration of 400 μM or troglitazone at a concentration of 2000 μM compared with those observed for the control.” for “5).”

PPARγ [21] = assay: Effect of PPARγ siRNA on GCT cultured cells after addition of drug, CCK-8; type: cell-based, human; settings: 200 μM; 72 hours; GCT cultured cells case 1, case 2
Procedure: The cells (case 1, case 2) were cultured on a 96-well culture plate, allowed to react with PPARγ siRNA, negative control siRNA, or only with the transfection reagents (Thermo Scientific DharmaFECT, Thermo Scientific) for 48 hours, and further cultured in a usual culture medium for 48 hours. Then, 200 μM of zaltoprofen or 60 μM of troglitazone was added to the cells, 72 hours thereafter, color development was performed with Cell Counting Kit-8 (CCK-8, Dojindo), and 3 hours thereafter, absorbance was measured at 450 nm (FIGS. 14 and 15).

osteoclastoma = assay: MRI evaluation of patient with recurrence of osteoclastoma in the pelvic part administered with zaltoprofen; type: in vivo, human
Procedure: as §8

[22] = system: cultured cells of pigmented villonodular synovitis; assay: Cell proliferation of cultured cells of pigmented villonodular synovitis, CCK-8; type: cell-based, human; settings: various concentrations
Procedure: as §1, §2

PPARγ [23] = assay: PPARγ staining of operational excision sample of GCT patient administered with zaltoprofen; type: in vivo, human; settings: 3 tablets per day (80 mg) for about 28 days
Procedure: as §3

[24] = system: cultured cells of giant cell tumor of tendon sheath; assay: Cell proliferation of cultured cells of giant cell tumor of tendon sheath, CCK-8; type: cell-based, human; settings: various concentrations
Procedure: as §1, §2

## CC(=O)Nc1ccc(O)cc1 [acetaminophen]
GCT cultured cells [1]; various concentrations
  cell proliferation (absorbance at 450 nm): suppressed in a non-steroidal anti-inflammatory agent concentration-dependent manner

## O=C(O)Cc1ccccc1Nc1c(Cl)cccc1Cl [diclofenac]
GCT cultured cells [1]; various concentrations
  cell proliferation (absorbance at 450 nm): suppressed in a non-steroidal anti-inflammatory agent concentration-dependent manner

## COc1ccc2c(c1)c(CC(=O)O)c(C)n2C(=O)c1ccc(Cl)cc1 [indomethacin]
GCT cultured cells [1]; various concentrations
  cell proliferation (absorbance at 450 nm): suppressed in a non-steroidal anti-inflammatory agent concentration-dependent manner

## CC(C(=O)O)c1ccc2c(c1)CC(=O)c1ccccc1S2 (stereo not drawn) [zaltoprofen]
Osteoclastoma (GCT) [2]
  fat cell differentiation: fat cell differentiation was observed
[3]
  positive images obtained with HCS LipidTOX Green Neutral Lipid Stain (differentiation into fat cells): increased
PPARγ [4]
  expression of PPARγ (PPARγ-positive cells): increased in a zaltoprofen concentration-dependent manner
PPARγ [5]
  expression of PPARγ (PPARγ-positive images): expression of PPARγ was successfully observed
Caspase 3 [6]
  caspase 3-positive ratio: increased
GCT cultured cells [7]
  Tunel-positive ratio: concentration and administration time-dependent increases
[8]
  Tunel-positive ratio: increased
PPARγ [9]
  expression of PPARγ (PPARγ-positive images): expression of PPARγ was successfully observed
Caspase 3 [10]
  caspase 3-positive cells: observed
Caspase 3 [11]
  caspase 3-positive ratio: increased
GCT cultured cells [1]; 5, 10, 50, 100, and 200 μM, 24 hours
  cell proliferation (absorbance at 450 nm): concentration-dependent suppression of the cell proliferation
[12]
  cell proliferation (absorbance): suppressed in a troglitazone, pioglitazone, or zaltoprofen concentration-dependent manner
Osteoclastoma (GCT) [13]
  Tunel-positive cells: observed
[14]
  positive images obtained with HCS LipidTOX Green Neutral Lipid Stain (differentiation into fat cells): increased
PPARγ [15]
  expression of PPARγ (PPARγ-positive images): expression of PPARγ was successfully observed
GCT cultured cells [16]
  positive images obtained with HCS LipidTOX Green Neutral Lipid Stain (differentiation into fat cells): increased in a zaltoprofen concentration-dependent manner
Caspase 3 [17]
  caspase 3-positive ratio: concentration and administration time-dependent increases
Caspase 3 [18]
  caspase 3-positive ratio: increased
[19]; after three months
  MRI imaging effect: attenuation of the MRI imaging effect
[19]; after two months
  tumor size evaluated by MRI: shrinkage of tumor
[20]
  Tunel-positive ratio: increased
PPARγ [21]
  effect of the drug on cell proliferation in the PPARγ siRNA addition group: significantly suppressed
osteoclastoma; after four months of administration
  MRI image of the pelvic part (arrows): tumor necrosis region
osteoclastoma; after two months of administration
  MRI image of the pelvic part (arrows): tumor necrosis region
[22]
  cell proliferation (absorbance): suppressed in a zaltoprofen or troglitazone concentration-dependent manner
PPARγ [23]
  PPARγ-expressing cells: PPARγ-expressing cells were observed
[24]
  cell proliferation (absorbance): suppressed in a zaltoprofen or troglitazone concentration-dependent manner

Source: patent US10660882B2, “Prophylactic or therapeutic agent for giant cell tumors occurring in bone and soft tissue or for chondrosarcoma” (NIPPON CHEMIPHAR CO., LTD., priority 2012, dated 2020)
